Columns and labels:
soybean (Glycine max) = test: Test E pre-/postemergence: soybean; assay type: in vivo; details: scale 0 to 100
Text: (§1) Seeds of plant species selected from corn (Zea mays), soybean (Glycine max), velvetleaf (Abutilon theophrasti), lambsquarters (Chenopodium album), poinsettia, wild (wild poinsettia, Euphorbia heterophylla), pigweed, palmer (palmer pigweed, Amaranthus palmeri), waterhemp (common waterhemp, Amaranthus rudis), smartweed (ladysthumb smartweed, Polygonum persicaria), surinam grass (Brachiaria decumbens), crabgrass, large (large crabgrass, Digitaria sanguinalis), crabgrass, Brazil (Brazilian crabgrass, Digitaria horizontalis), panicum, fall (fall panicum, Panicum dichotomiflorum), foxtail, giant (giant foxtail, Setaria faberii), foxtail, green (green foxtail, Setaria viridis), goosegrass (Eleusine indica), johnsongrass (Sorghum halepense), ragweed (common ragweed, Ambrosia elation), barnyardgrass (Echinochloa crus-galli), sandbur (southern sandbur, Cenchrus echinatus), arrowleaf sida (Sida rhombifolia), ryegrass, Italian (Italian ryegrass, Lolium multiflorum), dayflower, (VA) (Virginia dayflower, Commelina virginica), field bindweed (Convolvulus arvensis), cocklebur (common cocklebur, Xanthium strumarium), morningglory (Ipomoea coccinea), nightshade (eastern black nightshade, Solanum ptycanthum), kochia (Kochia scoparia), nutsedge, yellow (yellow nutsedge, Cyperus esculentus) and beggarticks (hairy beggarticks, Bidens pilosa) were planted into a silt loam soil and treated preemergence with test chemicals formulated in a non-phytotoxic solvent mixture which included a surfactant. At the same time, plants selected from these crop and weed species were planted in pots containing a growing medium comprising spaghnum peat moss, vermiculite, wetting agent and starter nutrients and treated with postemergence applications of some of the test chemicals formulated in the same manner. Plants ranged in height from 2 to 18 cm for postemergence treatments (1- to 4-leaf stage).
(§2) Treated plants and controls were maintained in a greenhouse for 14 to 21 days, after which time all species were compared to controls and visually evaluated. Plant response ratings, summarized in Table E, are based on a scale of 0 to 100 where 0 is no effect and 100 is complete control. A dash (-) response means no test result.

[1] = test system: nightshade (eastern black nightshade, Solanum ptycanthum); test: Test E pre-/postemergence: nightshade; assay type: in vivo; details: Preemergence, scale 0 to 100
Text: as §1, §2

[2] = test system: surinam grass (Brachiaria decumbens); test: Test E pre-/postemergence: surinam grass; assay type: in vivo; details: Preemergence, scale 0 to 100
Text: as §1, §2

[3] = test system: velvetleaf (Abutilon theophrasti); test: Test E pre-/postemergence: velvetleaf; assay type: in vivo; details: Preemergence, scale 0 to 100
Text: as §1, §2

[4] = test system: sandbur (southern sandbur, Cenchrus echinatus); test: Test F pre-/postemergence: sandbur; assay type: in vivo
Text: Seeds of plant species selected from corn (Zea mays), soybean (Glycine max), velvetleaf (Abutilon theophrasti), lambsquarters (Chenopodium album), poinsettia, wild (wild poinsettia, Euphorbia heterophylla), pigweed, palmer (palmer pigweed, Amaranthus palmeri), waterhemp (common waterhemp, Amaranthus rudis), surinam grass (Brachiaria decumbens), crabgrass, Brazil (Brazilian crabgrass, Digitaria horizontalis), panicum, fall (fall panicum Panicum dichotomiflorum), crabgrass, large (large crabgrass, Digitaria sanguinalis), foxtail, giant (giant foxtail, Setaria faberii), foxtail, green (green foxtail Setaria viridis), goosegrass (Eleusine indica), ragweed (common ragweed, Ambrosia elatior), barnyardgrass (Echinochloa crus-galli), sandbur (southern sandbur, Cenchrus echinatus), arrowleaf sida (Sida rhombifolia), ryegrass, Italian (Italian ryegrass, Lolium multiflorum), dayflower, VA (Virginia (VA) dayflower, Commelina virginica), field bindweed (Convolvulus arvensis), cocklebur (common cocklebur, Xanthium strumarium), morningglory (Ipomoea coccinea), nightshade (eastern black nightshade, Solanum ptycanthum), kochia (Kochia scoparia), nutsedge, yellow (yellow nutsedge, Cyperus esculentus), johnsongrass (Sorghum halepense), smartweed (ladysthumb smartweed, Polygonum persicaria), and beggarticks (hairy beggarticks, Bidens pilosa), were planted into a silt loam soil and treated preemergence with test chemicals formulated in a non-phytotoxic solvent mixture which included a surfactant. At the same time, plants selected from these crop and weed species and also pigweed (Amaranthus retroflexus), waterhemp_RES1 (ALS/Triazine resistant common waterhemp, Amaranthus rudis) and waterhemp_RES2 (ALS/HPPD resistant common waterhemp, Amaranthus rudis) were planted in pots containing a planting medium comprising spaghnum peat moss, vermiculite, wetting agent and starter nutrients treated with postemergence applications of some of the test chemicals formulated in the same manner. Plants ranged in height from 2 to 18 cm for postemergence treatments (1- to 4-leaf stage).
as §2

Waterhemp = test: Test C preemergence: waterhemp; assay type: in vivo, Amaranthus rudis; details: scale 0 to 100, 0 no effect, 100 complete control
Oilseed Rape = test: Test C postemergence: oilseed rape; assay type: in vivo, Brassica napus
Text: Seeds of plant species selected from blackgrass (Alopecurus myosuroides), bromegrass, downy (downy bromegrass, Bromus tectorum), foxtail, green (green foxtail, Setaria viridis), ryegrass, Italian (Italian ryegrass, Lolium multiflorum), winter wheat (Triticum aestivum), wild oat (Avena fatua), galium (catchweed bedstraw, Galium aparine), bermudagrass (Cynodon dactylon), surinam grass (Brachiaria decumbens), cocklebur (common cocklebur, Xanthium strumarium), corn (Zea mays), large crabgrass (Digitaria sanguinalis), woolly cupgrass (Eriochloa villosa), foxtail, giant (giant foxtail, Setaria faberii), goosegrass (Eleusine indica), johnsongrass (Sorghum halepense), kochia (Kochia scoparia), lambsquarters (Chenopodium album), morningglory (Ipomoea coccinea), nightshade (eastern black nightshade, Solanum ptycanthum), nutsedge, yellow (yellow nutsedge, Cyperus esculentus), pigweed (Amaranthus retroflexus), ragweed (common ragweed, Ambrosia elation), soybean (Glycine max), common (oilseed) sunflower (Helianthus annuus), Russian thistle (Salsola kali) and velvetleaf (Abutilon theophrasti) were planted into a blend of loam soil and sand and treated preemergence with test chemicals formulated in a non-phytotoxic solvent mixture which included a surfactant.
At the same time, plants selected from these crop and weed species and also barley (winter barley, Hordeum vulgare), canarygrass (Phalaris minor), chickweed (common chickweed, Stellaria media) windgrass (Apera spica-venti) and deadnettle (henbit deadnettle, Lamium amplexicaule) were planted in pots containing Redi-Earth® planting medium (Scotts Company, 14111 Scottslawn Road, Marysville, Ohio 43041) comprising spaghnum peat moss, vermiculite, wetting agent and starter nutrients and treated with postemergence applications of test chemicals formulated in the same manner. Plants ranged in height from 2 to 18 cm (1- to 4-leaf stage) for postemergence treatments.
as §2, with “13” for “14”, “15” for “21”, “C,” for “E,”

[5] = Preemergence, 16 g ai/ha, scale 0 to 100 (0 no effect, 100 complete control)
[6] = Preemergence, 31 g ai/ha, scale 0 to 100 (0 no effect, 100 complete control)
[7] = Preemergence, 125 g ai/ha, scale 0 to 100
[8] = Postemergence, 8 g ai/ha, scale 0 to 100
[9] = Postemergence, 16 g ai/ha, scale 0 to 100
[10] = Postemergence, 31 g ai/ha, scale 0 to 100
[11] = Postemergence, 62 g ai/ha, scale 0 to 100
[12] = 125 g ai/ha, scale 0 to 100, 0 no effect, 100 complete control

Row | Compound | Plant response rating: Soybean (soybean (Glycine max); Preemergence, 16 g ai/ha) | Plant response rating: Soybean (soybean (Glycine max); Preemergence, 31 g ai/ha) | Plant response rating: Soybean (soybean (Glycine max); Preemergence, 62 g ai/ha) | Plant response rating: Soybean (soybean (Glycine max); Preemergence, 125 g ai/ha) | Plant response rating: Nightshade ([1]; 31 g ai/ha) | Plant response rating: Nightshade ([1]; 62 g ai/ha) | Plant response rating: Nightshade ([1]; 125 g ai/ha) | Plant response rating: Surinam Grass ([2]; 16 g ai/ha) | Plant response rating: Surinam Grass ([2]; 31 g ai/ha) | Plant response rating: Surinam Grass ([2]; 62 g ai/ha) | Plant response rating: Surinam Grass ([2]; 125 g ai/ha) | Plant response rating: Velvetleaf ([3]; 16 g ai/ha) | Plant response rating: Velvetleaf ([3]; 31 g ai/ha) | Plant response rating: Velvetleaf ([3]; 62 g ai/ha) | Plant response rating: Velvetleaf ([3]; 125 g ai/ha) | Plant response rating, Sandbur [4, 5] | Plant response rating, Sandbur [4, 6] | Plant response rating, Waterhemp (Waterhemp; 125 g ai/ha) | Plant response rating, Oilseed Rape (Oilseed Rape; [12]) | also measured
1 | Cc1nn(-c2ccc(F)cc2)nc1Cc1ccnc(C(F)(F)F)c1 [Compound 16, 4-[[2-(4-fluorophenyl)-5-methyl-2H-1,2,3-triazol-4-yl]methyl]-2-(trifluoromethyl)pyridine] | 0 | 0 | 0 | 20 | 50 | 100 | 100 | 0 | 0 | 30 | 35 | 20 | 30 | 80 | 80 |  |  |  |  | Plant response rating: Soybean (soybean (Glycine max); Preemergence, 8 g ai/ha): 0; Plant response rating: Nightshade ([1]; 8 g ai/ha): 0; Plant response rating: Nightshade ([1]; 16 g ai/ha): 0; Plant response rating: Surinam Grass ([2]; 8 g ai/ha): 0; Plant response rating: Velvetleaf ([3]; 8 g ai/ha): 0
2 | Cc1nn(-c2ccc(C(F)(F)F)cc2)nc1Cc1ccnc(C(F)(F)F)c1 [Compound 47, 4-[[5-methyl-2-[4-(trifluoromethyl)phenyl]-2H-1,2,3-triazol-4-yl]methyl]-2-(trifluoromethyl)pyridine] | 0 | 40 | 40 | 40 | 75 | 98 | 98 | 15 | 20 | 25 | 40 | 30 | 40 | 40 | 75 |  |  |  |  | Plant response rating: Soybean (soybean (Glycine max); Postemergence, 250 g ai/ha): 75; Plant response rating: Soybean (soybean (Glycine max); Postemergence, 16 g ai/ha): 50; Plant response rating: Soybean (soybean (Glycine max); Postemergence, 31 g ai/ha): 50; Plant response rating: Soybean (soybean (Glycine max); Postemergence, 62 g ai/ha): 60; Plant response rating: Soybean (soybean (Glycine max); Postemergence, 125 g ai/ha): 60; Plant response rating: Soybean (soybean (Glycine max); Preemergence, 250 g ai/ha): 40; Plant response rating: Nightshade ([1]; 250 g ai/ha): 98; Plant response rating: Surinam Grass ([2]; 250 g ai/ha): 65; Plant response rating: Velvetleaf ([3]; 250 g ai/ha): 100
3 | Cc1nn(-c2ccc(F)cc2)nc1Oc1ccnc(C(F)(F)F)c1 [Compound 129, 4-[[2-(4-fluorophenyl)-5-methyl-2H-1,2,3-triazol-4-yl]oxy]-2-(trifluoromethyl)pyridine] | 15 | 15 | 20 | 25 | 0 | 50 | 60 | 0 | 15 | 15 | 60 | 0 | 0 | 20 | 25 |  |  |  |  | Plant response rating: Soybean (soybean (Glycine max); Preemergence, 8 g ai/ha): 0; Plant response rating: Nightshade ([1]; 8 g ai/ha): 0; Plant response rating: Nightshade ([1]; 16 g ai/ha): 0; Plant response rating: Surinam Grass ([2]; 8 g ai/ha): 0; Plant response rating: Velvetleaf ([3]; 8 g ai/ha): 0
4 | Fc1ccc(-n2nc(Cc3ccnc(C(F)(F)F)c3)c(OCC(F)(F)F)n2)cc1 [Compound 142] |  |  |  |  |  |  |  |  |  |  |  |  |  |  |  | 5 | 5 |  |  | Plant response rating, Sandbur [4, 7]: 70
5 | Cc1nn(-c2ccc(F)c(F)c2)nc1Oc1ccnc(C(F)(F)F)c1 [Compound 145] |  |  |  |  |  |  |  |  |  |  |  |  |  |  |  |  |  |  |  | Plant response rating, Sandbur [4, 8]: 10; Plant response rating, Sandbur [4, 9]: 20; Plant response rating, Sandbur [4, 10]: 30; Plant response rating, Sandbur [4, 11]: 35; Plant response rating, Sandbur ([4]; Postemergence, 125 g ai/ha, scale 0 to 100): 35
6 | CCCc1nn(-c2ccc(F)cc2)nc1Cc1ccnc(C(F)(F)F)c1 [Compound 153] |  |  |  |  |  |  |  |  |  |  |  |  |  |  |  | 5 | 35 | 100 | 90 | Plant response rating, Sandbur [4, 7]: 95; Plant response rating, Sandbur ([4]; Preemergence, 250 g ai/ha, scale 0 to 100): 100
7 | Cc1nn(-c2ccc(C(F)(F)F)c(F)c2)nc1Cc1ccnc(C(F)(F)F)c1 [Compound 162] |  |  |  |  |  |  |  |  |  |  |  |  |  |  |  | 5 | 15 | 100 | 90 | Plant response rating, Sandbur ([4]; Postemergence, 4 g ai/ha, scale 0 to 100): 10; Plant response rating, Sandbur [4, 8]: 10; Plant response rating, Sandbur [4, 9]: 15; Plant response rating, Sandbur [4, 10]: 20; Plant response rating, Sandbur [4, 11]: 20; Plant response rating, Sandbur ([4]; Preemergence, 4 g ai/ha, scale 0 to 100, 0 no effect, 100 complete control): 0; Plant response rating, Sandbur ([4]; Preemergence, 8 g ai/ha, scale 0 to 100, 0 no effect, 100 complete control): 0
8 | CCc1nn(-c2ccc(F)cc2)nc1Oc1ccnc(C(F)(F)F)c1 [Compound 166] |  |  |  |  |  |  |  |  |  |  |  |  |  |  |  |  |  | 100 | 5 | Plant response rating, Waterhemp (Waterhemp; 250 g ai/ha): 100
9 | CCCc1nn(-c2ccc(C(F)(F)F)c(F)c2)nc1Oc1ccnc(C(F)(F)F)c1 [Compound 185] |  |  |  |  |  |  |  |  |  |  |  |  |  |  |  |  |  |  | 50 | Plant response rating, Oilseed Rape (Oilseed Rape; 250 g ai/ha, scale 0 to 100 (0 no effect, 100 complete control)): 55
10 | CCOc1nn(-c2ccc(Br)cc2)nc1Cc1ccnc(C(F)(F)F)c1 [Compound 189] |  |  |  |  |  |  |  |  |  |  |  |  |  |  |  |  |  | 100 |  | 

Reference: patent US9302999B2, “Substituted triazoles as herbicides” (E. I. DU PONT DE NEMOURS AND COMPANY, priority 2012, dated 2016)
